These results are taken from article doi:10.1101/2025.01.24.634724, “Receptor Activity-Modifying Protein 3 enhances GLP-1-mediated Insulin Secretion” (bioRxiv, 2025).

One test deals with CLR-RAMP1. The settings on record: cited from earlier work. An excerpt: As RAMP3 expression varies between tissues, it is possible that by directly targeting this complex, tissue specific receptor activation could be facilitated. […] Agonists which have reduced affinity for the RAMP3 complex over receptor alone ...
The test system of another test is INS-1 832/3 cells. In words: Insulin secretion (GSIS), INS-1 832/3. The settings on record: for effect of inhibitor on GLP-1-mediated insulin secretion: 10nM GLP-1, vector or RAMP3, 30 min inhibitor pre-treatment (YM-254890 100nM, PTX 0.2ng/μL), n>4. The test is classed as cell-based, rat. On the procedure:
(§1) Insulin content was measured with the insulin ultra-sensitive detection kit (Cisbio).

For test [1], the system named is LgBiT-GLP-1R with SmBiT-RAMP1 or -RAMP2. Briefly: NanoBiT/BRET fluorescent ligand binding with SmBiT-RAMP1 or -RAMP2. The settings on record: SmBiT-RAMP1 or -RAMP2, HEK293T. A general note: BRET reads energy transfer from a luciferase to a nearby fluorophore.
A further test deals with Min6 B1 cells. Briefly: Insulin secretion, siRNA treated Min6 B1. The test is classed as cell-based, mouse. The settings on record: 10nM or 1nM peptide with 10mM glucose; Min6 B1, n=4. On the procedure:
as §1

Test [2] has as its system wildtype SvEv129/SJ and isogenic Ramp3−/− male mice. In words: IPGTT plasma insulin, WT and Ramp3−/− mice. The settings on record: GLP-1 50nmol/kg subQ, 15 min after glucose 2g/kg i.p., n=5. The test is classed as in vivo, mouse. An excerpt: (§2) Ramp3^−/− mice and genotyping have been previously described ([34]).
For test [3] the test system is unchanged. In words: Insulin tolerance test (ITT), blood glucose, WT and Ramp3−/− mice. The test is classed as in vivo, mouse. The settings on record: GLP-1 50nmol/kg subQ 15 min before insulin 1IU/kg i.p., n=5.
Source text: as §2

A further test deals with GCGR with RAMP2. The settings on record: RAMP2 co-expression ref 13; cited from earlier work. An excerpt:
Signalling bias can also be influenced by the tissue, due to differential expression of signalling proteins, as well as allosteric modulators. A common protein allosteric modulator of Class B1 GPCRs are the receptor activity-modifying proteins (RAMPs). First discovered for the calcitonin-like receptor, with which they form obligate heterodimers, RAMPs influence the expression, affinity, and signalling bias of the receptor. For the calcitonin family, this leads to receptors considered functionally distinct ([10], [11]), although smaller effects are observed on other receptors e.g. the vasoactiv ...

Test [4] relates to Ramp1/Ramp3 knockout mice. The settings on record: mouse models; dual Ramp1/Ramp3 deletion ref 43 (Leuthardt et al.); cited from earlier work. An excerpt: It is possible this difference is due to lower receptor expression, or a differential effect on bias for the rodent receptors than the human. Species differences in signalling bias have been observed for other GPCRs associated with islet cell pharmacology ([41]), so it stands to reason this might be influencing the differences o ...

In test [5] the test system is Nluc-GLP-1R. In words: cAMP accumulation, HEK293T. The test is classed as cell-based.
The test system of test [6] is Nluc-GLP-1R. Briefly: (Ca2+)i mobilisation, HEK293T. It counts as cell-based.
Protocol: HEK293T cells were transfected with 100ng Nluc-GLP-1R and 200ng of pcDNA3.1 or FLAG-RAMP3, or 100ng of pcDNA3.1 and FLAG- RAMP3 per 100μl cells and seeded in a 0.01% PLL-coated black-walled clear-bottom 96-well plate. 48 hours later media was removed, and cells were incubated in 10μM Fluor4-AM dye containing 2.5mM probenecid for 1 hour at room temperature. Cells were washed and dye replaced with Hank’s Balanced Salt Solution (Lonza) without Ca^2+ containing 0.1% BSA w/v. […] The response to vehicle was taken to be 0%, and the response to 10 μM ionomycin was used as 100%. For HEK293T cells, the maximal fluorescence was used for further analysis.
Another test deals with GLP-1R / Gαs. In words: TRUPATH G protein dissociation, Gαs. The test is classed as cell-based. The settings on record: HEK293T.
Test [7] concerns GLP-1R-Nluc. In words: Receptor internalisation (loss of BRET with RIT-Venus), HEK293T. It counts as cell-based. The settings on record: for effect of RAMP3 on internalisation: RAMP3 overexpression.
Protocol: Experiments were performed as previously described (([47])).
Another test deals with GLP-1R / Gαq(R183Q). In words: TRUPATH G protein dissociation, Gαq(R183Q). The settings on record: HEK293T, R183Q mutant.
Test [8] deals with GLP-1R-Nluc. Briefly: β-arrestin recruitment, HEK293T. The test is classed as cell-based. The settings on record: stated in discussion. (In general: Activated receptors often draw arrestin, which recruitment assays turn into a signal.)
Where [9] appears, read: relative to GLP-1 at GLP-1R alone.

Values joined by “and” are separate entries in the source; they are usually repeats but may differ in a detail not shown here. Equal values may be shown once. “Also recorded” adds a separate entry of the source. Numbered stars: 1 amine (or outer) side, 2 acyl side, 3 side chain; on linkers, the order of the positions; unused ones are H or OH. Bridge positions count the residues as written; N and C are the ends. Square brackets hold non-standard residues; d marks the D form. Peptide text beside a SMILES is read from it. X1 = CC(=O)NC(C(=O)OC(C(C)C)C(N[*:1])C(=O)[*:2])C(O)C(C)C; PhLac = O=C(O)[CH](O)Cc1ccccc1; NMeT = CN[CH](C(=O)O)[CH](C)O; NMeA = CN[CH](C)C(=O)O; NMeDha = C=C(NC)C(=O)O

Protocol for GLP-1R / Gαq(R183Q): (§3) G Protein dissociation assays were performed using the TRUPATH biosensor platform, as described ([28]). HEK293T cells were transfected with GLP-1R, Gα, Gγ, Gβ, and pcDNA3.1 or FLAG-RAMP3 all in equal quantities and incubated overnight. […] Cells were washed with KREBs with 0.1% BSA and incubated in buffer containing 5μM coelenterazine 400a for 5 minutes. Ligands were then added, and plates read using the Pherastar microplate reader using the BRET2 module, at 60-second intervals. The BRET2 ratio was calculated (λ515/λ400) and total dissociation over a 30-minute period used to generate dose response curves.
Protocol for GLP-1R / Gαs: as §3

For `NCCCC[C@H](NC(=O)[C@@H](Cc1cc(Br)c(O)c(Br)c1)NC(=O)N1CCC(N2Cc3ccccc3NC2=O)CC1)C(=O)N1CCN(c2ccncc2)CC1` [BIBN 4096 BS], the “activity at CLR-RAMP1” value in the test with CLR-RAMP1 is listed as “CLR-RAMP1 antagonist”.

`CC(C)(C)c1cc(C(=O)/C(C#N)=N/Nc2cccc(Cl)c2)no1` [ESI-09]: the “effect of inhibitor on GLP-1-mediated insulin secretion” value (“effect of inhibitor” for short) in the test on INS-1 832/3 cells was “significantly decreased GLP-1 mediated potentiation of GSIS in both vector and RAMP3 transfected cells”. Moreover, in the test on INS-1 832/3 cells (10μM ESI-09, no GLP-1, n=6), the “effect on insulin secretion with […] glucose alone” value was “a reduction was also observed on the response to 16.7mM glucose alone; also recorded: a non-significant reduction was also observed in cells stimulated with high glucose alone”.

`Nc1ncnc2c1nc(Br)n2C1OC2COP(O)(=S)OC2C1O` (stereo not shown) [Rp-8-Br-cAMPs]: the “effect of inhibitor” value in the test with INS-1 832/3 cells was “no effect on insulin secretion, irrespective of the expression of RAMP3”.

`C=C1C(=O)NC(C)C(=O)N(C)C(C)C(=O)NC(C(OC(=O)C(NC(C)=O)C(O)C(C)C)C(C)C)C(=O)N(C)C(C(C)OC)C(=O)OC(C)C(NC(C)=O)C(=O)OC(Cc2ccccc2)C(=O)N1C` (stereo not shown) [YM-254890] (Ac-T[PhLac][NMeDha]A[NMeA][X1][NMeT](Me); ester 1-C; configuration not given here): the “effect of inhibitor” value in the test with INS-1 832/3 cells is on record as “the effect of YM-254890 was greater than PTX”.

As for “Ex-4-Red: Tag-Lite GLP-1 receptor red ligand, based on exendin-4 (Cisbio)”, the “binding of Ex-4-Red” value in test [1] is “not observed for SmBiT-RAMP1 or -RAMP2”.

Take GLP-1 (7–36amide): the insulin secretion with INS-1 832/3 cells was 2.36±0.30 fold over 2.8mM glucose and 3.94±0.33 fold over 2.8mM glucose. The “effect of RAMP3 knockdown on insulin secretion” value in the test on Min6 B1 cells is listed as “attenuated, although the effect was small”. Besides, the “plasma insulin, IPGTT” value is recorded as “This response was lost in Ramp3^−/− mice; also recorded: no longer able to elevate insulin secretion above vehicle-treated animals” in test [2] (Ramp3−/− mice) and “increased insulin secretion 15 minutes after administration of glucose” in test [2] (WT mice). For the same molecule, the “blood glucose, ITT” value in test [3] (Ramp3−/− mice) is “lost in Ramp3^−/− mice (Figure 7H)”; in test [3] (WT mice), “potentiated the effects of insulin on blood glucose”. For the same molecule, the “effect of RAMP2 on Gαs coupling at GCGR” value with GCGR with RAMP2 is recorded as “decreasing the response”. In addition, the “effect of Ramp knockout on bodyweight lowering” value in [4] is “increase the effect of GLP-1 on bodyweight lowering in mouse models”.

In the case of GLP-1 (9–36amide) [GLP-1 9–36], in the test with Nluc-GLP-1R [5] (8-minute stimulation, concentration range tested), the cAMP production result was “did not elicit sufficient cAMP production over the concentration range tested”. In addition, in the test with Nluc-GLP-1R [6] (in the absence of RAMP3), the “(Ca2+)i mobilisation” value is given as “unable to elicit any (Ca^2+)i mobilisation in the absence of RAMP3”.

As to “exendin-4: incretin mimetic, approved for T2DM in 2005”, in the test on GLP-1R / Gαs, the “effect of RAMP3 on Gαs dissociation” value is on record as “no effect”. The “effect of RAMP3 overexpression on cAMP potency and efficacy” value (shortened to “effect of RAMP3 overexpression”) in the test on Nluc-GLP-1R [5] (8-minute stimulation) is “reductions in both potency and efficacy observed when RAMP3 was overexpressed”. For the same molecule, in the test on GLP-1R-Nluc [7], the “effect of RAMP3 on internalisation” value is “no subsequent effect on internalisation”. The “effect of RAMP3 on Gαq(Q) dissociation” value in the test on GLP-1R / Gαq(R183Q) is reported as “no effect”.

With “glucagon: agonist of the glucagon receptor (GCGR)”, in the test on GCGR with RAMP2, the “effect of RAMP2 on Gαs coupling at GCGR” value is listed as “increasing Gαs coupling at GCGR”.

“glucose-dependent insulinotropic polypeptide [GIP]”: the “effect of RAMP1 and RAMP3 on insulin secretion” value in the test on INS-1 832/3 cells is “both RAMP1 and 3 increased insulin secretion”. For the same molecule, the “effect of RAMP3 knockdown on insulin secretion” value in the test with Min6 B1 cells is “unaffected by RAMP3 knockdown”.

For “liraglutide: a synthetic, lipidated GLP-1 mimetic, approved in the treatment of T2DM”, the “effect of RAMP3 on Gαs dissociation” value with GLP-1R / Gαs is “no effect”. In the test with Nluc-GLP-1R [5] (8-minute stimulation), the “effect of RAMP3 overexpression” value was “reductions in both potency and efficacy observed when RAMP3 was overexpressed”. Further, the “effect of RAMP3 on LogRA, cAMP accumulation / second messenger” value in the test with Nluc-GLP-1R [5] (setting [9]) was “lesser effects on second messenger signalling”. In the test with Nluc-GLP-1R [6], the “effect of RAMP3 on (Ca2+)i mobilisation” value is “no significant effects”. Also, the inherent signalling bias entry in the test on GLP-1R-Nluc [8] is “bias towards β-arrestin recruitment”. In the test on GLP-1R-Nluc [7], the “effect of RAMP3 on internalisation” value is listed as “significant decrease in the potency of internalisation; also recorded: the response to liraglutide was reduced”. In the test with GLP-1R-Nluc [7] (setting [9]), the “effect of RAMP3 on LogRA, desensitisation / internalisation” value is on record as “greater reduction in internalisation”. The “effect of RAMP2 on Gαs coupling at GCGR” value with GCGR with RAMP2 was “decreasing the response”. In addition, the “effect of RAMP3 on Gαq(Q) dissociation” value with GLP-1R / Gαq(R183Q) is “no effect”.

As to “oxyntomodulin: an endogenous dual agonist of both GCGR and GLP-1R”, in the test with Nluc-GLP-1R [5] (8-minute stimulation), the “effect of RAMP3 overexpression” value was “reductions in both potency and efficacy observed when RAMP3 was overexpressed”. Moreover, the “effect of RAMP3 on internalisation” value in the test with GLP-1R-Nluc [7] is reported as “no subsequent effect on internalisation”. The “effect of RAMP2 on Gαs coupling at GCGR” value in the test with GCGR with RAMP2 is recorded as “increasing Gαs coupling at GCGR”. Further, the “effect of RAMP3 on Gαq(Q) dissociation” value in the test on GLP-1R / Gαq(R183Q) was “no effect”.

pertussis toxin [PTX]: the “effect of inhibitor” value in the test with INS-1 832/3 cells is “decreased insulin secretion significantly only when RAMP3 was overexpressed”.
